# Data: paper PMC10148497, “Evaluation of Bacillus aryabhattai B8W22 peroxidase for phenol removal in waste water effluents” (BMC Microbiology, 2023)
# Tested on: T1, peroxidase from Bacillus aryabhattai B8W22
# T1 construct: gene extracellular peroxidase; 66 kDa on SDS-PAGE
# Experiment: peroxidase activity assay, Lineweaver-Burk plot
# Type: biochemical, Priestia aryabhattai
# Details: co-substrate, pH and temperature of the kinetic assay not given
compound,measurement,value
COc1ccccc1O [guaiacol],Km,6.942 mg/mL
